Literature values in paper PMC8162882 (Chemical Science, 2020).

Conditions: as toxic as the natural product

Row | Substance | Toxicity relative to the natural product (6′-OH replaced by H)
1 | amanin | 25–50%
2 | amaninamide | 25–50%
